Assay results published in ChEMBL document CHEMBL1201862, “PubChem BioAssay data set” (2004).
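Dose response: 5 concentrations. Exposure: 48 h. Format: 96-well plates. Endpoint: linear interpolation; highest concentration if not reached. GI50 marks 50% less growth.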 The source made the active and inactive calls. Rule as the data show it: active = GI50 up to about 1.1 µM and inactive = higher.

Tests used:
Assay in all cases: NCI-60 cell line screen, 48 h
M19-MEL = tested on: M19-MEL
SNB-19 = tested on: SNB-19
ACHN = tested on: ACHN
SF-268 = tested on: SF-268
NCI-H226 = tested on: NCI-H226
MOLT-4 = tested on: MOLT-4
NCI-H23 = tested on: NCI-H23
UACC-257 = tested on: UACC-257
OVCAR-3 = tested on: OVCAR-3
OVCAR-4 = tested on: OVCAR-4
SW-620 = tested on: SW-620
SK-MEL-5 = tested on: SK-MEL-5
HCT-116 = tested on: HCT-116
HCC 2998 = tested on: HCC 2998
SK-MEL-28 = tested on: SK-MEL-28
UO-31 = tested on: UO-31
COLO 205 = tested on: COLO 205
RPMI-8226 = tested on: RPMI-8226
MDA-N = tested on: MDA-N
MDA-MB-435 = tested on: MDA-MB-435

Measured: GI50

CC(C)(C)OC(=O)NC1CCCC1=O (centres undefined)
inactive: M19-MEL > 100 µM | SNB-19 > 100 µM | ACHN > 100 µM | SF-268 > 100 µM | NCI-H226 > 100 µM | MOLT-4 > 100 µM | NCI-H23 > 100 µM | UACC-257 > 100 µM | OVCAR-3 > 100 µM | OVCAR-4 > 100 µM | SW-620 > 100 µM | SK-MEL-5 > 100 µM | HCT-116 > 100 µM | HCC 2998 > 100 µM | SK-MEL-28 > 100 µM | UO-31 > 100 µM

C/N=C(\N)c1ccc(NC(=N)c2ccc(C(=N)Nc3ccc(/C(N)=N/C)cc3)cc2)cc1
inactive: M19-MEL > 100 µM | SNB-19 > 100 µM | ACHN > 100 µM | COLO 205 > 100 µM | SF-268 > 100 µM | NCI-H226 > 100 µM | MOLT-4 > 100 µM | UACC-257 > 100 µM | OVCAR-3 > 100 µM | OVCAR-4 > 100 µM | SW-620 > 100 µM | SK-MEL-5 > 100 µM | RPMI-8226 > 100 µM | SK-MEL-28 > 100 µM | UO-31 > 100 µM

COC(=O)C(C(=O)C(=O)Nc1ccc(C)cc1C)c1csc(-n2nc(-c3ccccc3)cc2-c2ccccc2)n1 (centres undefined)
inactive: M19-MEL > 100 µM | SNB-19 > 100 µM | ACHN 53.5 µM | COLO 205 > 100 µM | SF-268 86.7 µM | NCI-H226 80.2 µM | MOLT-4 22.5 µM | NCI-H23 > 100 µM | UACC-257 > 100 µM | OVCAR-3 86.5 µM | OVCAR-4 82.4 µM | SW-620 > 100 µM | HCT-116 58.1 µM | HCC 2998 > 100 µM | UO-31 45.6 µM

O=C1C(c2ccc([N+](=O)[O-])cc2)=[N+]([O-])c2ccc([N+](=O)[O-])cc21
inactive: M19-MEL 27.6 µM | SNB-19 98.6 µM | ACHN 32.2 µM | COLO 205 35.3 µM | SF-268 40.8 µM | NCI-H226 37.2 µM | MOLT-4 27 µM | NCI-H23 33.8 µM | OVCAR-3 17.3 µM | OVCAR-4 28.1 µM | SW-620 39.4 µM | SK-MEL-5 30.8 µM | RPMI-8226 15.5 µM | SK-MEL-28 > 100 µM | UO-31 48.9 µM

COc1ccc(-c2c(C(=O)Nc3ccccc3)c(-c3ccccc3)n(C3OC(CO)C(O)C(O)C3O)c(=S)c2C#N)cc1 (centres undefined)
inactive: MDA-N > 100 µM | SNB-19 > 100 µM | ACHN > 100 µM | COLO 205 > 100 µM | SF-268 > 100 µM | NCI-H226 > 100 µM | MOLT-4 > 100 µM | MDA-MB-435 > 100 µM | NCI-H23 > 100 µM | UACC-257 > 100 µM | OVCAR-3 > 100 µM | OVCAR-4 > 100 µM | SW-620 > 100 µM | SK-MEL-5 > 100 µM | HCT-116 > 100 µM | RPMI-8226 > 100 µM | HCC 2998 > 100 µM | SK-MEL-28 > 100 µM | UO-31 > 100 µM

CC[C@H](NC(=O)OC(C)(C)C)C(=O)NCP(=O)(OCc1ccc([N+](=O)[O-])cc1)OCc1ccc([N+](=O)[O-])cc1
inactive: MDA-N 28.6 µM | SNB-19 43.1 µM | ACHN 23 µM | COLO 205 16.5 µM | SF-268 40.6 µM | NCI-H226 39.4 µM | MOLT-4 21.5 µM | MDA-MB-435 34.9 µM | NCI-H23 41.3 µM | UACC-257 11.9 µM | OVCAR-3 11 µM | OVCAR-4 25.1 µM | SW-620 40.6 µM | SK-MEL-5 13.5 µM | HCT-116 27.7 µM | RPMI-8226 27.7 µM | HCC 2998 36.2 µM | SK-MEL-28 28.4 µM | UO-31 14.8 µM

CCCCC1(N=[N+]=[N-])C(=O)C2C=CC=C3c4ccccc4N(C1=O)C32 (centres undefined)
inactive: MDA-N 15.7 µM | SNB-19 22.1 µM | ACHN 17.5 µM | COLO 205 18.5 µM | SF-268 19.9 µM | NCI-H226 21.3 µM | MOLT-4 15.3 µM | MDA-MB-435 19.1 µM | NCI-H23 14.4 µM | UACC-257 18.4 µM | OVCAR-3 21.6 µM | OVCAR-4 21.6 µM | SW-620 20.2 µM | SK-MEL-5 16.4 µM | HCT-116 18.1 µM | RPMI-8226 17.7 µM | HCC 2998 15.6 µM | SK-MEL-28 78.2 µM | UO-31 18.8 µM

O=c1[nH]c(=O)n(C/C=C/CBr)nc1Br
inactive: MDA-N 14.1 µM | SNB-19 14.7 µM | ACHN 13 µM | COLO 205 14.2 µM | SF-268 14.1 µM | NCI-H226 13.9 µM | MOLT-4 16 µM | MDA-MB-435 13.6 µM | NCI-H23 12.6 µM | UACC-257 12.3 µM | OVCAR-3 11.6 µM | OVCAR-4 10.4 µM | SW-620 14.4 µM | SK-MEL-5 13.2 µM | HCT-116 13 µM | RPMI-8226 4.08 µM | HCC 2998 14.9 µM | SK-MEL-28 14.9 µM | UO-31 18.5 µM

CCCCCCCCCCCCCCCCCCNc1ccn(C2OC(COP(=O)(O)OCC3OC(n4cc(C)c(=O)[nH]c4=O)CC3N=[N+]=[N-])C(O)C2O)c(=O)n1 (centres undefined)
inactive: MDA-N 43.7 µM | SNB-19 19.2 µM | ACHN 54 µM | COLO 205 14.5 µM | SF-268 19.2 µM | NCI-H226 22.8 µM | MOLT-4 16.4 µM | MDA-MB-435 23.8 µM | NCI-H23 19.5 µM | UACC-257 25.4 µM | OVCAR-3 36.9 µM | OVCAR-4 25.7 µM | SW-620 22.5 µM | SK-MEL-5 22.8 µM | HCT-116 39.7 µM | RPMI-8226 11.8 µM | HCC 2998 15.1 µM | SK-MEL-28 18.6 µM | UO-31 21 µM

c1ccc(N2N=NC3C4CC(C5c6ccccc6C45)C32)cc1 (centres undefined)
inactive: M19-MEL 22.7 µM | SNB-19 69.5 µM | COLO 205 41.4 µM | SF-268 34.8 µM | NCI-H226 37.8 µM | MOLT-4 17.1 µM | NCI-H23 24 µM | UACC-257 24.2 µM | OVCAR-3 26.6 µM | OVCAR-4 27.3 µM | SW-620 36.6 µM | SK-MEL-5 18.7 µM | HCT-116 24.7 µM | RPMI-8226 18.4 µM | UO-31 28.2 µM

C=C[C@]1(C)C[C@@H](OC(=O)CO)[C@@]2(C)[C@H](C)CC[C@]3(CCC(=O)[C@H]32)[C@@H](C)[C@@H]1O
inactive: MDA-N > 100 µM | SNB-19 > 100 µM | ACHN > 93.5 µM | COLO 205 > 100 µM | SF-268 > 83.2 µM | NCI-H226 > 100 µM | MOLT-4 37.5 µM | MDA-MB-435 > 68.1 µM | NCI-H23 > 70.1 µM | UACC-257 > 76.6 µM | OVCAR-3 > 60.1 µM | OVCAR-4 > 100 µM | SW-620 > 82.2 µM | SK-MEL-5 > 89.5 µM | HCT-116 > 55.6 µM | RPMI-8226 70.5 µM | HCC 2998 72.9 µM | SK-MEL-28 > 74.1 µM | UO-31 > 63.5 µM

COc1ccc2oc(=O)c(-c3nc4ccccc4s3)cc2c1
inactive: MDA-N 20.1 µM | SNB-19 46.7 µM | ACHN 5.55 µM | COLO 205 54.1 µM | SF-268 34 µM | NCI-H226 19.2 µM | MOLT-4 > 77.6 µM | MDA-MB-435 12 µM | NCI-H23 27.5 µM | UACC-257 > 85.1 µM | OVCAR-3 14.2 µM | OVCAR-4 20.8 µM | SW-620 32.6 µM | SK-MEL-5 33.5 µM | HCT-116 11.6 µM | RPMI-8226 > 62.7 µM | HCC 2998 > 100 µM | SK-MEL-28 > 59.3 µM | UO-31 13.9 µM

NC(Cc1ccccc1)c1nccs1 (centres undefined)
inactive: MDA-N > 100 µM | SNB-19 > 100 µM | ACHN > 100 µM | COLO 205 > 100 µM | SF-268 > 100 µM | NCI-H226 > 100 µM | MOLT-4 > 100 µM | MDA-MB-435 > 100 µM | NCI-H23 > 100 µM | UACC-257 > 100 µM | OVCAR-3 > 100 µM | OVCAR-4 > 100 µM | SW-620 > 100 µM | SK-MEL-5 > 100 µM | HCT-116 > 100 µM | RPMI-8226 > 100 µM | HCC 2998 > 100 µM | SK-MEL-28 > 100 µM | UO-31 > 100 µM

Cn1c2ccccc2c2c3c(c4c5ccccc5n(C5OC(CO)C(O)C(O)C5O)c4c21)C(=O)OC3=O (centres undefined)
inactive: MDA-N > 100 µM | SNB-19 > 100 µM | ACHN > 100 µM | COLO 205 > 100 µM | SF-268 > 100 µM | NCI-H226 > 100 µM | MOLT-4 > 100 µM | MDA-MB-435 > 100 µM | NCI-H23 > 100 µM | UACC-257 > 100 µM | OVCAR-3 > 100 µM | OVCAR-4 > 100 µM | SW-620 > 100 µM | SK-MEL-5 > 100 µM | HCT-116 > 100 µM | RPMI-8226 > 100 µM | HCC 2998 > 100 µM | SK-MEL-28 > 100 µM | UO-31 > 100 µM

CCOc1cc2ccc3c4cc(OC)c(OC)cc4cnc3c2cc1OCC
inactive: M19-MEL > 100 µM | SNB-19 > 100 µM | ACHN > 100 µM | COLO 205 > 100 µM | SF-268 > 100 µM | MOLT-4 > 100 µM | NCI-H23 > 100 µM | UACC-257 > 100 µM | OVCAR-3 > 100 µM | OVCAR-4 > 100 µM | SW-620 > 100 µM | SK-MEL-5 > 100 µM | HCT-116 > 100 µM | RPMI-8226 > 100 µM | HCC 2998 > 100 µM | SK-MEL-28 > 100 µM | UO-31 > 100 µM
